US10519162B2, “6,7-dihydropyrazolo[1,5-α]pyrazin-4(5H)-one compounds and their use as negative allosteric modulators of mGluR2 receptors” (Janssen Pharmaceutica NV, priority 2014, dated 2019)
One block for each compound: values may come before it.

Experiments:
[1] = tested on: rats; assay: Reversal of the effect of the mGluR2 PAM JNJ-42153605-induced inhibition of scopolamine-induced hyperlocomotion (SCOP JNJ-42153605); type: in vivo, rat; details: PO (oral route), rats, reversal criterion total distance >1500 cm; for ED50: Rattus norvegicus
Description: 2) Reversal of the Effect of the mGluR2 PAM JNJ-42153605-Induced Inhibition of Scopolamine-Induced Hyperlocomotion Apparatus
Motor activity was measured in microprocessor-based motor activity arenas (closed gray PVC cylinders with a height of 39 cm and a diameter of 31 cm). Each arena was placed on an infrared LED (8×8 LEDs) lit box (white PVC squared box; 40×40 cm^2; height 12.5 cm. An infrared-sensitive tube camera and a white light source were mounted to the ceiling above the observation chamber to track the animal. The total distance traveled (cm) was recorded and analyzed using the Noldus Ethovision XT Video Tracking System (Version 7.0.418; Noldus, Wageningen, The Netherlands). The intensity of the light within the activity cages (measured in the centre at the level of the floor) ranged between 4 and 8 LUX.
The rats were pretreated with test compound or vehicle at 60 min before the start of the activity recordings and placed into individual cages. The rats were challenged with JNJ-42153605 (3-(cyclopropylmethyl)-7-(4-phenylpiperidin-1-yl)-8-(trifluoromethyl)[1,2,4]triazolo[4,3-a]pyridine; WO2010/130424; Cid et al. J. Med. Chem. 2012, 55, 8770-8789) (20 mg/kg, i.v.) 30 min before the start of the activity recording combined with scopolamine (0.16 mg/kg, i.v.) just before the start of the activity measurements. Immediately after the injection of scopolamine, the rats were placed into the activity monitors and total distance travelled over the first 30 min was measured.
Solvent-Pretreated Control Rats.
Animals receiving the combination of JNJ-42153605 and scopolamine (n=433) almost always travelled a distance of less than 1500 cm (<1500 cm) (only 2.5% of the control rats travelled a distance of more than 1500 cm (>1500 cm)). On the other hand, animals challenged with scopolamine alone (n=215) always travelled a total distance of more than 1500 cm (>1500 cm) and almost always (in 95.8% of the rats) a distance of more than 4400 cm (>4400 cm). […] For reversal of the inhibitory effect of JNJ-42153605 on the scopolamine-induced hyperlocomotion, the following all-or-none criteria were adopted: (1) reversal: total distance >1500 cm.

[2] = molecular target: T1, human mGlu2 receptor (Homo sapiens, UniProt Q14416); assay: [35S]GTPγS binding assay (mGluR2 negative allosteric modulation, glutamate ~EC80 60 μM); type: biochemical; details: for Emax: read-out: GTPγS-hmGluR2 anGT Emax; for IC50: membranes from CHO cells transfected with human mGlu2 receptor, glutamate ~EC80 (60 μM), pIC50 = −log IC50 (M), read-out: GTPγS-hmGluR2 anGT pIC50 (converted)
T1 construct: expressed in transfected cells; host or cells: CHO cells
Description: 1) [^35S]GTPγS Binding Assay
[^35S]GTPγS Binding Assay
Total reaction volume was 200 μl. […] Membrane-bound radioactivity was counted in a Topcount.

[3] = maximal % inhibition relative to the control glutamate response (EC80 glutamate)

T1 sequence (Q14416 19-872): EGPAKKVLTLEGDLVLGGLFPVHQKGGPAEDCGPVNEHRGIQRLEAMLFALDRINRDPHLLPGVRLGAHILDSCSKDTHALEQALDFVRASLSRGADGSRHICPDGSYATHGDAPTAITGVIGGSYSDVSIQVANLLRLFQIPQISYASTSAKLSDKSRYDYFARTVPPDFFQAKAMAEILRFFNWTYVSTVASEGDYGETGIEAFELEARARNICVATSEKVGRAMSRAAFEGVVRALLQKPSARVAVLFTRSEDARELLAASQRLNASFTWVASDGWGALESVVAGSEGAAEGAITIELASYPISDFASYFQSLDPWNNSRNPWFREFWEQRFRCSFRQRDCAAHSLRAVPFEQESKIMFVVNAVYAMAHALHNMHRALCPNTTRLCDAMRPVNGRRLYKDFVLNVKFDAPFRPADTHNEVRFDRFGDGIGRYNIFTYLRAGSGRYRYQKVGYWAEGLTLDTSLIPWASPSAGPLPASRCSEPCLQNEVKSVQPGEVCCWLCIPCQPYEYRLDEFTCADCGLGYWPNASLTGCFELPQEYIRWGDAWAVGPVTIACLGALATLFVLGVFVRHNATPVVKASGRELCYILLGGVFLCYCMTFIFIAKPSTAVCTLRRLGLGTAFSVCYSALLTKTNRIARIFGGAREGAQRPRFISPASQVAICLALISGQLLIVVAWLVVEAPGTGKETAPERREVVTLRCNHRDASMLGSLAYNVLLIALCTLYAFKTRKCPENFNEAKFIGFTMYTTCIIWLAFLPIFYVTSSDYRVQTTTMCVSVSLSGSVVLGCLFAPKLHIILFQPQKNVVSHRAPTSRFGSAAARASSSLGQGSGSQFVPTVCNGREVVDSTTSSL

Compound: C[C@H]1CN(c2ccc(C(F)(F)F)c(C#N)c2)C(=O)c2c(NC(=O)c3ccc(N)nc3)cnn21 [Co. No. 26]
ED50 [1]: > 2.5 mg/kg | melting point: 216.96 °C | Emax [2, 3]: 106% | IC50 [2]: 6.46e-09 M

Compound: COc1cccc(C(=O)Nc2cnn3c2C(=O)N(c2ccc(C(F)(F)F)cc2)C[C@@H]3C)c1 [Co. No. 27]
ED50 [1]: > 2.5 mg/kg | melting point: 136.91 °C | Emax [2, 3]: 106% | IC50 [2]: 6.61e-09 M

Compound: Cc1cc(C(=O)Nc2cnn3c2C(=O)N(c2ccc(C(F)(F)F)cc2)C[C@@H]3C)ccn1 [Co. No. 29, 2-Methyl-N-[(7S)-7-methyl-4-oxo-5-[4-(trifluoromethyl)phenyl]-6,7-dihydropyrazolo[1,5-a]pyrazin-3-yl]pyridine-4-carboxamide]
ED50 [1]: > 2.5 mg/kg | melting point: 145.1 °C | Emax [2, 3]: 100% | IC50 [2]: 6.92e-09 M

Compound: COCc1cccc(C(=O)Nc2cnn3c2C(=O)N(c2ccc(C(F)(F)F)cc2)C[C@@H]3C)c1 [Co. No. 30]
ED50 [1]: > 2.5 mg/kg | melting point: 160.03 °C | Emax [2, 3]: 113% | IC50 [2]: 7.08e-09 M

Compound: COc1cncc(C(=O)Nc2cnn3c2C(=O)N(c2ccc(C(F)(F)F)cc2)C[C@@H]3C)c1 [Co. No. 32]
ED50 [1]: 1.26 mg/kg | melting point: 174.59 °C | Emax [2, 3]: 112% | IC50 [2]: 7.41e-09 M

Compound: Cc1cccc(C(=O)Nc2cnn3c2C(=O)N(c2ccc(C(F)(F)F)cc2)C[C@@H]3C)n1 [Co. No. 34]
ED50 [1]: > 2.5 mg/kg | melting point: 214.97 °C | Emax [2, 3]: 116% | IC50 [2]: 8.32e-09 M

Compound: C[C@H]1CN(c2ccc(C(F)(F)F)cc2)C(=O)c2c(NC(=O)c3cnccn3)cnn21 [Co. No. 35]
ED50 [1]: 1.26 mg/kg | melting point: 219.91 °C | Emax [2, 3]: 112% | IC50 [2]: 8.13e-09 M

Compound: COc1cc(N2C[C@H](C)n3ncc(NC(=O)c4ccc(N)nc4)c3C2=O)ccc1C(F)(F)F [Co. No. 38]
ED50 [1]: > 2.5 mg/kg | melting point: 179.66 °C | Emax [2, 3]: 109% | IC50 [2]: 9.12e-09 M

Compound: COc1cnc(C(=O)Nc2cnn3c2C(=O)N(c2ccc(C(F)(F)F)cc2)C[C@@H]3C)cn1 [Co. No. 39]
ED50 [1]: > 2.5 mg/kg | melting point: 191.33 °C | Emax [2, 3]: 111% | IC50 [2]: 9.33e-09 M

Compound: C[C@H]1CN(c2ccc(C(F)(F)F)cc2)C(=O)c2c(NC(=O)c3cnc(N)cn3)cnn21 [Co. No. 45]
ED50 [1]: > 2.5 mg/kg | melting point: 287.45 °C | Emax [2, 3]: 106% | IC50 [2]: 1.2e-08 M

Compound: Cc1cncc(C(=O)Nc2cnn3c2C(=O)N(c2ccc(C(F)(F)F)cc2)C[C@@H]3C)c1 [Co. No. 99]
ED50 [1]: > 2.5 mg/kg | melting point: 165.21 °C | Emax [2, 3]: 114% | IC50 [2]: 3.98e-09 M

Compound: C[C@H]1CN(c2ccc(Cl)c(Cl)c2)C(=O)c2c(NC(=O)c3ccccn3)cnn21 [Co. No. 105]
ED50 [1]: > 0.63 mg/kg | melting point: 155.04 °C | Emax [2, 3]: 109% | IC50 [2]: 2.63e-09 M

Compound: Cc1cc(N2C[C@H](C)n3ncc(NC(=O)c4cncc(F)c4)c3C2=O)ccc1C(F)(F)F [Co. No. 107]
ED50 [1]: > 0.63 mg/kg | melting point: 155.04 °C | Emax [2, 3]: 108% | IC50 [2]: 2.69e-09 M

Now from value to compound, other results behind:

melting point: 185.71 °C | Emax [2, 3]: 109% | IC50 [2]: 9.77e-10 M
Compound: Cc1cncc(C(=O)Nc2cnn3c2C(=O)N(c2ccc(Cl)c(Cl)c2)C[C@@H]3C)c1 [Co. No. 108]
ED50 [1]: > 0.63 mg/kg

melting point: 128.16 °C | Emax [2, 3]: 105% | IC50 [2]: 1.38e-09 M
Compound: C[C@H]1CN(c2ccc(Cl)c(Cl)c2)C(=O)c2c(NC(=O)c3cncc(F)c3)cnn21 [Co. No. 109]
ED50 [1]: > 0.63 mg/kg

melting point: 217.95 °C | Emax [2, 3]: 107% | IC50 [2]: 2.34e-09 M
Compound: Cc1cc(N2C[C@H](C)n3ncc(NC(=O)c4ccccn4)c3C2=O)ccc1C(F)(F)F [Co. No. 110]
ED50 [1]: > 0.63 mg/kg

melting point: 217.95 °C | Emax [2, 3]: 105% | IC50 [2]: 1.02e-08 M
Compound: COc1cc(N2C[C@H](C)n3ncc(NC(=O)c4ccccn4)c3C2=O)ccc1C(F)(F)F [Co. No. 111]
ED50 [1]: > 0.63 mg/kg

melting point: 128.97 °C | Emax [2, 3]: 106% | IC50 [2]: 4.68e-09 M
Compound: Cc1cc(C(=O)Nc2cnn3c2C(=O)N(c2ccc(C(F)(F)F)c(C)c2)C[C@@H]3C)ccn1 [Co. No. 112]
ED50 [1]: > 0.63 mg/kg

melting point: 225.49 °C | Emax [2, 3]: 106% | IC50 [2]: 2.51e-09 M
Compound: Cc1cc(N2C[C@H](C)n3ncc(NC(=O)c4cnccn4)c3C2=O)ccc1C(F)(F)F [Co. No. 114]
ED50 [1]: > 0.63 mg/kg

melting point: 151.53 °C | Emax [2, 3]: 107% | IC50 [2]: 3.39e-09 M
Compound: Cc1cncc(C(=O)Nc2cnn3c2C(=O)N(c2ccc(C(F)(F)F)c(C)c2)C[C@@H]3C)c1 [Co. No. 115]
ED50 [1]: > 0.63 mg/kg

melting point: 162.96 °C | Emax [2, 3]: 104% | IC50 [2]: 1e-08 M
Compound: COc1cc(N2C[C@H](C)n3ncc(NC(=O)c4cncc(F)c4)c3C2=O)ccc1C(F)(F)F [Co. No. 116]
ED50 [1]: > 0.63 mg/kg

melting point: 166.32 °C | Emax [2, 3]: 104% | IC50 [2]: 8.51e-09 M
Compound: COc1cc(N2C[C@H](C)n3ncc(NC(=O)c4cncc(C)c4)c3C2=O)ccc1C(F)(F)F [Co. No. 117]
ED50 [1]: > 0.63 mg/kg

melting point: 191.55 °C | Emax [2, 3]: 108% | IC50 [2]: 4.27e-09 M
Compound: COc1cc(N2C[C@H](C)n3ncc(NC(=O)c4cnccn4)c3C2=O)ccc1C(F)(F)F [Co. No. 118]
ED50 [1]: > 0.63 mg/kg

melting point: 200.3 °C | Emax [2, 3]: 107% | IC50 [2]: 8.32e-09 M
Compound: Cc1ccncc1C(=O)Nc1cnn2c1C(=O)N(c1ccc(C(F)(F)F)c(C)c1)C[C@@H]2C [Co. No. 119]
ED50 [1]: > 0.63 mg/kg

melting point: 160.45 °C | Emax [2, 3]: 106% | IC50 [2]: 2.09e-08 M
Compound: COc1cncc(C(=O)Nc2cnn3c2C(=O)N(c2ccc(C(F)(F)F)c(Cl)c2)C[C@@H]3C)c1C [Co. No. 121]
ED50 [1]: > 0.63 mg/kg

melting point: 181.87 °C | Emax [2, 3]: 105% | IC50 [2]: 1.91e-07 M
Compound: COc1cncc(C(=O)Nc2cnn3c2C(=O)N(c2ccc(C(F)(F)F)cc2)C[C@@H]3C)c1C [Co. No. 122]
ED50 [1]: > 0.63 mg/kg

melting point: 157.12 °C | Emax [2, 3]: 107% | IC50 [2]: 2.63e-08 M
Compound: COc1cc(N2C[C@H](C)n3ncc(NC(=O)c4ccnc(C)c4)c3C2=O)ccc1C(F)(F)F [Co. No. 123]
ED50 [1]: > 0.63 mg/kg

melting point: 217.01 °C | Emax [2, 3]: 109% | IC50 [2]: 9.55e-09 M
Compound: C[C@H]1CN(c2ccc(C(F)(F)F)c(F)c2)C(=O)c2c(NC(=O)c3cncc(F)c3)cnn21 [Co. No. 124]
ED50 [1]: > 0.63 mg/kg

melting point: 226.14 °C | GTPγS-hmGluR2 anGT Emax [2, 3]: 110% | IC50 [2]: 4.17e-09 M
Compound: C[C@H]1CN(c2ccc(C(F)(F)F)c(F)c2)C(=O)c2c(NC(=O)c3cccnc3)cnn21 [Co. No. 126]
ED50 SCOP JNJ-42153605 [1]: >0.63 mg/kg
